Test results from patent publication US20180325933A1, “FOOD INTAKE, BODY WEIGHT AND GLUCOSE METABOLISM REGULATION BY MODULATION OF P2Y6 RECEPTOR SIGNALING” (priority 2014, published 2018).
No end group written: not given here.

How the values were obtained:
[1] = system: P2Y6; experiment: Food intake after icv UDP or ghrelin with or without P2Y6 antagonist; type: in vivo, mice
Description: To further elucidate the specific contribution of P2Y6-mediated signaling in UDP-dependent activation of food intake, the inventors took a pharmacological approach.
Data are presented as mean±SEM, *p<0.05 (A-B) and as boxplots generated according to the “Tukey method” (mean: “+”, median: horizontal line) (F). *p<0.05, **p<0.01, ***p<0.001 as compared to vehicle or control.

[2] = system: AgRPCre mice; experiment: Food intake with pharmacogenetic (hM4D/CNO) inhibition of AgRP cells; type: in vivo; conditions: icv 30 μM UDP
Description: To directly assess, whether the ability of centrally applied UDP to activate feeding depends on AgRP-cell activation, the inventors investigated the effect of centrally administered UDP in mice, which allow for pharmacogenetic inhibition of AgRP cells. To this end, the inventors injected AgRPCre mice bilaterally into the ARH with an AAV, which co-expresses in a Cre-dependent manner the inhibtory DREADD-channel hM4D and mCherry.
FIG. 5: (A) Representative microphotographs of mCherry immunostainng in control and AgRP^Cre mice injected bilaterally in the arcuate nucleus (ARH) with Cre-dependent rAAV-hSyn-DIO-hM4D(Gi)-mCherry (mCherry, red; DAPI counterstaining, blue). Scale bar: 100 μm. V3, third ventricle. (B) Food intake measurement in virus-injected AgRP^Cre mice or control wild type litter mates. Mice received CNO injections (0.3 mg/kgBW) 15 minutes prior to icy administration of 30 μM UDP or vehicle (Saline) (n=6 vs 8 vs 5 vs 5). Data are presented as mean±SEM, **p<0.01, ***p<0.001 as compare to vehicle.

[3] = system: NPY-neurons in the ARH; experiment: cFos immunoreactivity of NPY-neurons in NPY-GFP mice after icv administration; type: in vivo; conditions: icv 30 μM UDP; 20% following vehicle
Description: Given that the ventromedial part of the ARH mainly contains AgRP/NPY neurons, the inventors next directly investigated the specific effect of P2Y6/UDP on those neurons. The inventors addressed whether icy application of UDP specifically activates NPY/AgRP-coexpressing neurons in the ARH. The inventors therefore repeated the UDP-induced cFos experiments in mice, which express GFP under control of the neuropeptide (NPY)-promotor (NPY-GFP-mice).
FIG. 4: (A) Confocal images and quantitative comparison of ARH cFos immunoreactive cells in NPY-GFP mice after intracerebroventricular administration of vehicle (saline) or 30 μM UDP (n=3 vs. 4). (B) Recording of an AgRPtdTomato neuron showing the increase in action potential frequency in response to the application of 3 μM UDP. […] (C) Identification of a recorded neuron by antibody staining against tdTomato (red) and a biocytin backfill of the recorded neuron (green). (D) Overall responsiveness to 3 μM UDP of the recorded AgRP neuron population (n=11 in total: 4 non-responsive neurons vs 7 responsive). (E) Quantification of action potential (AP) frequency (n=11). Grey circles mark single recordings responding with a significant increase in AP frequency, open circles are non-responsive neurons. All recordings have been conducted in synaptically isolated neurons. […]

[4] = system: cFos immunoreactive cells in the arcuate nucleus of the hypothalamus; experiment: cFos immunoreactivity in the arcuate nucleus after icv administration; type: in vivo, C57BL/6 N mice; conditions: icv 30 μM UDP versus vehicle (saline)
Experimental: (§1) Having identified a restricted domain of P2Y6 expression in neurons of the ARH, the inventors next investigated whether intracerebroventricular (icv) application of the P2Y6 agonist UDP modulates activation of ARH neurons. To this end, C57BL/6 N control mice were implanted with icy cannulas in the lateral ventricle. Following icy administration of either vehicle (i.e. saline) or 30 μM UDP, brains were processed for immunochemistry with an antibody, which detects the immediate early gene product cFos. […] Since cFos activation can occur either directly in the respective brain area or indirectly via trans-synaptic activation of cells located in projecting areas of directly activated neurons, the inventors investigated the direct effect of UDP on its P2Y6. […] Therefore, the inventors also used pERK as a direct read-out of UDP action and the inventors assessed pERK immunoreactivity in the arcuate nucleus following icy UDP application. […]
(§2) FIG. 3: Confocal images and quantification comparison of (A) cFos- and (B) pERK-immunoreactive cells in the arcuate nucleus (ARH) of mice after intracerebroventricular administration of vehicle (saline) or 30 μM UDP (ncFos=7vs9; npERK=5vs6). […] (C) Quantification and representative immunoblots of phosphorylated and total ERK in hypothalamic cell lines after incubation with vehicle (saline) or 1 μM UDP (n=11vs12, from 3 independent experiments). […]

[5] = system: AgRP neurons; experiment: Electrophysiological recordings from AgRP-neurons; type: cell-based, AgRPtdTomato mice
Description: Next the inventors aimed to further directly support the notion, that the P2Y6 agonist UDP can modulate the activity of AgRP-expressing neurons in the ARH. Therefore, the inventors performed electrophysiological recordings from transgenic mice which express red tomato protein under control of the AgRP promoter through Cre-loxP-mediated recombination in (B6; 129S6-Gt(ROSA)26Sortm9(CAG-tdTomato)Hze/J) mice (AgRPtdTomato) (FIGS. 4B and 4C). […] Collectively, these experiments indicate that orexigenic AgRP/NPY-coexpressing neurons in the ARH not only express the UDP receptor P2Y6 but that they are directly activated following UDP application both in vitro and in vivo.
Having defined that the food intake-promoting activity of UDP is mediated through P2Y6-dependent signaling, the inventors aimed to assess whether also UDP's ability to activate AgRP-neuron firing depends on functional P2Y6 signaling. To this end, the inventors performed electrophysiological recordings from genetically identified AgRP-neurons in AgRPtdTomato mice. […] Thus, not only UDP-induced activation of feeding but also UDP-stimulated activation of AgRP-neurons critically depends on functional P2Y6 signaling.
FIG. 4: (A) Confocal images and quantitative comparison of ARH cFos immunoreactive cells in NPY-GFP mice after intracerebroventricular administration of vehicle (saline) or 30 μM UDP (n=3 vs. 4). (B) Recording of an AgRPtdTomato neuron showing the increase in action potential frequency in response to the application of 3 μM UDP. […] (C) Identification of a recorded neuron by antibody staining against tdTomato (red) and a biocytin backfill of the recorded neuron (green). (D) Overall responsiveness to 3 μM UDP of the recorded AgRP neuron population (n=11 in total: 4 non-responsive neurons vs 7 responsive). (E) Quantification of action potential (AP) frequency (n=11). Grey circles mark single recordings responding with a significant increase in AP frequency, open circles are non-responsive neurons. All recordings have been conducted in synaptically isolated neurons. Scale bars: A, 50 μm; B, 100 μm and C, […] and […] in the magnifications, respectively. V3, third ventricle. Data are presented as mean±SEM, *p<0.05 (A) and as boxplots generated according to the “Tukey method” (mean: “+” median: horizontal line) (E). *p<0.05.
FIG. 6: Food intake measurement after intracerebroventricular (icv) administration of (A) vehicle (0.1% DMSO), 1 μM of the P2Y6-specific antagonist MRS […] or co-icv of 30 μM UDP and 1 μM MRS 2578 (n=10vs11vs14vs12), or (B) vehicle (0.1% DMSO), 1 μM MRS 2578, 2 μg ghrelin or co-icv of 2 μg ghrelin and 1 μM MRS 2578 (n=13vs13vs14vs14). (C) Original traces showing the action potential firing during the application of MRS 2578 and during the application of 3 μM UDP in the presence of MRS 2578. (D) Quantification of action potential frequency (AP) (n=12). Data are presented as mean±SEM, *p<0.05 (A-B) and as boxplots generated according to the “Tukey method” (mean: “+”, median: horizontal line) […]. *p<0.05, **p<0.01, ***p<0.001 as compared to vehicle or control.

[6] = system: hypothalamic cell line (immortalized AgRP-neurons); experiment: ERK phosphorylation in hypothalamic cell line (immunoblot); type: cell-based; conditions: 1 μM UDP
Experimental: as §1, §2

[7] = system: pERK-positive cells in the ARH; experiment: pERK immunoreactivity in the arcuate nucleus after icv administration; type: in vivo, mice; conditions: icv 30 μM UDP
Experimental: as §1, §2

[8] = system: wild type mice fed a normal chow diet; experiment: Spontaneous food intake after intracerebroventricular (ICV) administration; type: in vivo
Experimental: To explore whether UDP plays a direct role on the central regulation of feeding behavior, the effect of intracerebroventricular administration (ICV) of UDP on spontaneous food intake in wild type mice fed with a normal chow diet was measured. Therefore, mice were anesthetized using ketamine/dexmedetomidine. Guide cannulas (26 gauges) were stereotaxically inserted into the lateral ventricle (bregma −0.2 mm, midline 1.0 mm, dorsal surface −2.1 mm). Animals were allowed to recover for one week prior to experiments.
Prior to the onset of the dark phase, mice acutely received 2 μL ICV administration of UDP (1 μM, 10 μM and 30 μM; Sigma-Aldrich®), MRS 2578 (1 μM, 10 μM; Sigma-Aldrich®), or control solution (NaCl). Spontaneous food intake was measured 2 and 4 hours after ICV administration from pre-weighed portions of food dispensed from the food rack. […] UDP appears to be a strong orexigenic agent as administration of 30 μM UDP induces a 45% increase of spontaneous food intake.
FIG. 1: (A) Food intake measurement (depicted as food intake to body weight) after intracereborventricular (icv) administration of increasing doses of UDP (1 μM, 10 μM and 30 μM) or vehicle (saline) (n=26vs13vs11vs14). (B) Food intake measurement (depicted as food intake to body weight) after intracereborventricular (icv) administration of P2Y6 antagonist MRS2578 (1 μM and […]) or vehicle (saline) (n=9vs5vs5). Data are presented as mean±SEM. **p<0.01, ***p<0.001.

[9] = system: P2Y1, P2Y2, P2Y4 or P2Y11 receptors; conditions: cited from earlier work
[10] = system: C57BL/6 N control animals; experiment: Food intake after intraperitoneal uridine; type: in vivo, C57BL/6 N mice; conditions: 50 mg/kgBW uridine i.p., 4 hours after application
Experimental: (§3) To directly address whether elevation of serum uridine concentrations—as observed in obesity—can lead to increased hypothalamic UDP synthesis, the inventors next injected C57BL/6 N control animals intraperitoneally with uridine.
(§4) FIG. 9: Effects of intraperitoneal injection of uridine (50 mg/kgBW) or vehicle (saline) in C57B16/N mice on (A) serum uridine (n=4-5 per group) and on (B) hypothalamic UDP contents (n=5 per group) 60 and 90 minutes post-injection as well on (C) food intake (n=15 per group). Data are presented as mean±SEM, *p<0.05, **p<0.01, ***p<0.001.

[11] = Hypothalamic UDP content after intraperitoneal uridine; type: in vivo, C57BL/6 N mice; conditions: 50 mg/kgBW uridine i.p., 90 minutes after application
Experimental: as §3, §4

[12] = Serum uridine after intraperitoneal uridine; type: in vivo, C57BL/6 N mice; conditions: 50 mg/kgBW uridine i.p.
Experimental: as §3, §4

ghrelin: centrally applied ghrelin, used to increase feeding as specificity control (GSSFLSPEHQRVQQRKESKKPPAKLQPR; ends and bridges not checked; UniProt Q9UBU3 24-51, looked up)
feeding ([1]; icv 2 μg ghrelin): increased feeding to comparable extend as observed upon UDP injection

O=c1ccn([C@@H]2O[C@H](COP(=O)(O)OP(=O)(O)O)[C@@H](O)[C@H]2O)c(=O)[nH]1 [UDP, uridine diphosphate]
UDP's food intake stimulatory effect ([2]; AAV-injected AgRPCre mice, CNO-mediated inhibition of AgRP-neurons): completely abolished | effect of AAV injection and CNO on UDP-induced food intake ([2]; Cre-negative control animals, CNO 0.3 mg/kgBW): no effect | proportion of NPY-neurons exhibiting cFos immunoreactivity [3]: 60% | increase in cFos immunoreactivity in the arcuate nucleus of the hypothalamus [4]: 2.5 fold | action potential frequency of AgRP neurons ([5]; 3 μM UDP): increased action potential frequency | number of responsive neurons in the recorded AgRP neuron population ([5]; 3 μM UDP, n=11 in total): 7 | proportion of AgRP-neurons sensitive to UDP ([5]; electrophysiology, 3 μM UDP): 60% | increase of food intake ([1]; icv UDP alone): ≈ 50% | ERK-phosphorylation [6]: clearly increased ERK-phosphorylation | number of pERK-positive cells in the ARH [7]: significantly increased the number of pERK-positive cells | increase of spontaneous food intake ([8]; ICV 30 μM UDP): 45% | spontaneous food intake ([8]; ICV 2 μL, 1 μM, 10 μM and 30 μM, food intake measured 2 and 4 hours after ICV): increases food intake in a dose-dependent manner

S=C=Nc1cccc(NC(=S)NCCCCNC(=S)Nc2cccc(N=C=S)c2)c1 [MRS2578, 1,4-Di[3-(3-isothiocyanatophenyl)thioureido]butane]
selectivity for P2Y6 receptor activity versus activity at P2Y1, P2Y2, P2Y4 or P2Y11 receptors [9]: selectively blocks P2Y6 receptor activity | effect on UDP's ability to reduce the membrane potential and activate action potential firing of AgRP-neurons ([5]; MRS 2578-preincubation, 3 μM UDP): abrogated | action potential frequency of AgRP-neurons, antagonist alone ([5]; MRS 2578 alone): no influence on action potential frequency | effect on ghrelin's ability to increase food intake ([1]; co-icv 2 μg ghrelin and 1 μM MRS 2578): no effect | effect on UDP-induced increase of food intake ([1]; co-icv 30 μM UDP and 1 μM MRS 2578): completely abrogated | food intake, antagonist alone ([1]; icv 1 μM MRS 2578): does not modulate food intake by itself | spontaneous food intake ([8]; ICV 2 μL MRS 2578 (1 μM, 10 μM)): decreases food intake

O=c1ccn([C@@H]2O[C@H](CO)[C@@H](O)[C@H]2O)c(=O)[nH]1 [uridine]
food intake [10]: increased food intake significantly | hypothalamic UDP content [11]: elevation of hypothalamic UDP content | serum uridine concentrations ([12]; 60 minutes post injection): rapid increase of serum uridine concentrations | serum uridine concentrations ([12]; 90 minutes after injection): returned to baseline concentrations
